From patent US9657071B2, “IgE peptide vaccine” (NIPPON ZENYAKU KOGYO CO., LTD., priority 2012, dated 2017)

How the values were obtained:
[1] = system: Dermatophagoides farinae antigen-specific IgE; test: Treatment experiment, artificially sensitized dogs: Dermatophagoides farinae antigen-specific IgE (ELISA); type: in vivo, dog; settings: artificially sensitized beagles, s.c. 1 mg five times; one individual (04-95) of 4
Description: Dog: 8 artificially sensitized beagles (1 to 8 years old; 4 males and 4 females) were used. The ages and numbers of these 8 dogs were as follows:
Artificial sensitization: 400 μg of a Dermatophagoides farinae antigen (GREER) and 1 mg of an alum adjuvant (LSL) were subcutaneously administered at a 2-week interval, and IgE against the Dermatophagoides farinae antigen was confirmed by ELISA.
Grouping: on the basis of the ELISA results of IgE, the dogs were divided into 2 groups each involving 4 individuals uniformly distributed in terms of their IgE levels and ages.
Vaccine: the M4-7-11 peptide was used alone without being conjugated.
Administration method: 1 mg (500 μL of 2 mg/mL) per dose was subcutaneously administered five times at 2-week intervals.
Evaluation: serum was collected, and an IgG antibody against human IgE was assayed by ELISA. […] The IgE antibody against Dermatophagoides farinae was evaluated by ELISA.
The Dermatophagoides farinae antigen was prepared at 5 μg/mL in an immobilization buffer (0.05 M carbonate buffer, pH 9.6), then added at a concentration of 100 μL/well to an ELISA plate, and left overnight at 4° C. […] Then, the measurement was performed using a plate reader (Bio-Rad Laboratories, Inc.; model 680) (dual: measurement: 450 nm, control: 570 nm).

Der f 2-specific IgE = test: Prevention experiment in rats: Der f 2-specific IgE (ELISA); type: in vivo; settings: rat, 50 μg three times, then Der f 2 + alum
Description: Der f 2 was prepared at 1 μg/mL in an immobilization buffer (0.05 M carbonate buffer, pH 9.6), then added at a concentration of 100 μL/well to an ELISA plate, and left overnight at 4° C. The immobilization plate was washed once with PBS-T (0.05%). A blocking solution (4× Block Ace, Snow Brand Milk Products Co., Ltd.; UK-B80) was added thereto at a concentration of 200 μL/well. The plate was blocked by incubation at 37° C. for 1.5 hours. The serum was diluted 20-fold with a diluent (PBS-T:Block Ace=9:1) and used. The plate was reacted with the serum at 37° C. for 1.5 hours and washed three times with PBS-T (0.05%). An anti-rat IgE antibody (Rabbit anti-Rat IgE HRP; Invitrogen Corp., 61-9520) was diluted 1000-fold with a diluent and added thereto as a secondary antibody at a concentration of 100 μL/well. After reaction at 37° C. for 1.5 hours, the plate was washed three times with PBS-T (0.05%). […] Then, the measurement was performed using a plate reader (Bio-Rad Laboratories, Inc.; model 680) (dual: measurement: 450 nm, control: 570 nm). […]
Blood was collected every 2 weeks from the administer start date. […] Serum was collected, and an IgG antibody against dog IgE was evaluated by ELISA (FIG. 16). […]

With “KKTSVSASQWYTKHHNNATT (listed as Mus musculus) [M4-7-11]” the “serum concentration of Dermatophagoides farinae antigen-specific IgE” value [1] was “reduction in the serum concentration of IgE was confirmed in one individual”, the “Der f 2-specific IgE production compared with the control group (saline)” value (Der f 2-specific IgE; intravenous) was “inhibition of IgE production was confirmed” and the “Der f 2-specific IgE production compared with the control group (saline)” value (Der f 2-specific IgE; subcutaneous (group 2)) was “inhibition of IgE production was remarkably confirmed”.
